Data on three substances can be found in patent US20100041597A1, “PEPTIDES TARGETED TO PROTEIN KINASE C ISOFORMS AND USES THEREOF” (priority 2005, published 2010).

The target in data set [1] is T1, PKC-α (Homo sapiens, UniProt P17252). The data set can be described thus: Subcellular localisation of PKC-α in IMR-32 cells. The conditions noted are these: 10 mg/ml, pinocytic endocytosis. Type of data set: cell-based. Also on record: subcellular localisation of endogenous PKC-α in IMR-32 cells; endogenous in cells; host or cells: IMR-32. The method, then: Peptides PRE 3 or PRE 4 (10 mg/ml) were introduced into human neuroblastoma cells (IMR-32) by pinocytic endocytosis. The cells were fixed and stained with rabbit PKC-A primary antibody and anti-rabbit Alexa-488 or Alexa-800 secondary antibody.
In most of the cells PKC-α can be seen to be located in the cytoplasm, around the nucleus and at the plasma membrane (where it becomes activated).

The target of data set [2] is T1, PKC-α. Description: In vitro competition with anti-PKC-α antibody, Protocol B (peptide added to cell extract before electrophoresis), IMR-32 cells. The note with it: PKC-α; for Band Intensity: control band intensity 302.5, Table 9. Type of data set: binding. Also on record: subcellular localisation of endogenous PKC-α in IMR-32 cells; endogenous in cells; host or cells: IMR-32. The protocol: (§1) Peptides PRE 3 and PRE 4 (see Table 3) were tested for their ability to interfere with the binding of isoform-specific polyclonal antibodies (Santa Cruz Biotechnology, Inc.) to PKC-α, PKC-βI or PKC-βII using the general protocol described in Example 3.

The nature of data set [3]: In vitro toxicity test (fluorimetric DNA assay, Hoechst). The note with it: human, IMR-32 neuroblastoma cells, read-out: % survival. Type of data set: cell-based, human. The method, then:
In vitro cytotoxicity testing of the peptides PRE 3, PRE 4 and PRE 5 (see Table 3) was conducted following the general protocol outlined below (modified from “Fluorimetric DNA assay for cell growth estimation” Rao J, Otto W., Analytical Biochem. 207:186-192, 1992).
The assay was performed in 96 well plates, with 3,000 IMR-32 neuroblastoma cells seeded per well and 8 replicas were performed per treatment. The cells were pre-treated with either plain medium and a pinocytic endocytosis reagent (Molecular Probes) or medium containing the PRE under evaluation and the pinocytic endocytosis reagent. The cells were allowed to grow under conventional conditions for 3 days. The DNA content of each well was assessed at 24, 48 and 72 hours using Hoechst reagent according to standard procedures. The fluorescence intensity per well was measured using the plate reader “CytoFluor 2350” from Millipore. Excitation was 360 nm and emission was 460 nm. The number of cells is directly correlated to the DNA content.
The results are shown in Tables 11-13 as the average relative fluorescence intensity measured for the 8 replica wells, as well as the percentage of survival as compared with matching untreated controls.

A further data set addresses PKC-βII (Homo sapiens, UniProt P05771). Description: In vitro competition with anti-PKC-βII antibody, Protocol B, IMR-32 cells. The data set is classed as binding. Also on record: PRE 3 and PRE 4 in IMR-32 Neuroblastoma Cells: Protocol B; endogenous in cells; host or cells: IMR-32. The note with it: for Band Intensity: control band intensity 98.6, Table 9. The protocol: as §1

The target in data set [4] is T1, PKC-α. Description: In vitro competition with anti-PKC-α antibody on blotted cell lysate, Protocol A, IMR-32 cells. Type of data set: binding. Also on record: subcellular localisation of endogenous PKC-α in IMR-32 cells; endogenous in cells; host or cells: IMR-32. The conditions noted are these: Protocol A; for Band Intensity / Inhibition (%) / Relative Intensity (%): IMR-32, Table 4. The method, then:
The ability of the peptides to interfere with the binding of a PKC-α-specific monoclonal antibody to PKC-α was determined using the following protocol.
Cell lysates from either IMR-32 (human neuroblastoma) cells or C6Cx43 cells (rat glioma transfected cells overexpressing connexin 43) were obtained using standard protocols and the proteins of the lysate were separated by SDS PAGE electrophoresis and electrotransferred onto a nitrocellulose membrane. […] A primary polyclonal antibody specific for PKC-α (Santa Cruz Biotechnology, Inc., CA) was then added (15 μg/ml) and the membrane incubated for a further 45 minutes. Finally, the primary antibody was detected with a secondary antibody conjugated to alkaline phosphatase using standard procedures. The intensity of the band corresponding to PKC-α was assessed by scanning and densitometry using the Gel-Pro software (Media Cybernetics) to obtain relative band intensities (average of 3 replicas). Control assays were conducted as described above except that blocking buffer without peptide was used.
The results are expressed as relative band intensity and as a percentage of the intensity of the corresponding band in the control assay (“Relative intensity (%)”). “% inhibition” relates to the percentage of the PKC-α band that is inaccessible to the antibody.

Chain of PKC-βII (P05771 1-673 isoform P05771-2): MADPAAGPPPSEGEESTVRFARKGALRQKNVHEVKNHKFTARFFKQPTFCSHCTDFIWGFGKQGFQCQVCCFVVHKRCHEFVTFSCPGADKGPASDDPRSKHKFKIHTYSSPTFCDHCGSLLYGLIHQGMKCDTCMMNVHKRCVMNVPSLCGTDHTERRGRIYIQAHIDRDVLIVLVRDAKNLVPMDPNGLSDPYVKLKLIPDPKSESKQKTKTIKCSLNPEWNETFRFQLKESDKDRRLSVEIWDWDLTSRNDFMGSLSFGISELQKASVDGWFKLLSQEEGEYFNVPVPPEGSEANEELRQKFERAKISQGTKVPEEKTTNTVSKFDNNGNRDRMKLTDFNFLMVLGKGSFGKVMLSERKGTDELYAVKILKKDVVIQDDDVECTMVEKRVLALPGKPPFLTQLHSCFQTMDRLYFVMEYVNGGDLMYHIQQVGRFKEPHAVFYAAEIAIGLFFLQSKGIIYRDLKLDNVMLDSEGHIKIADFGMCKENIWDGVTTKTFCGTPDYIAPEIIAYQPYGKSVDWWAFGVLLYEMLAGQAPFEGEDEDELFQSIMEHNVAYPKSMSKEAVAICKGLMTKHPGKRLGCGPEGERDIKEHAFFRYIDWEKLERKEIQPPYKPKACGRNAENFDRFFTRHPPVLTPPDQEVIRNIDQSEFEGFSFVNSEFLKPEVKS

“Ac-KDAQNLIGISI-NH2 [PRE 4, Ac-KDAQNLIGISI-NH2]”: the “effect on subcellular localisation of PKC-α” value at PKC-α [1] is recorded as “prevented translocation of PKC-α to the membrane”. Further, the inhibition – broadly, the drop in the measured response relative to a control, in per cent – at 0.1 mg on PKC-α [2] (100 μg, Table 9) is 89.4%; on PKC-βII (100 μg, PKC-βII, Table 9), 29%. In addition, the remaining activity at 0.1 mg on PKC-α [2] (100 μg, Table 9, read-out: Relative Intensity (%)) is 10.6%; at PKC-βII (100 μg, PKC-βII, Table 9, read-out: Relative Intensity (%)), 69.5%. Further, the “Band Intensity” value is 32.2 at PKC-α [2] (100 μg); 1.5 on PKC-α [2] (200 μg); 0.0 on PKC-α [2] (300 μg); 69.58 on PKC-βII (100 μg, PKC-βII); 0.0 on PKC-βII (200 μg, PKC-βII); 0.0 on PKC-βII (300 μg, PKC-βII). The inhibition at 0.2 mg at PKC-α [2] (200 μg, Table 9) came to 99.5%; on PKC-βII (200 μg, PKC-βII, Table 9), 100%. In addition, the remaining activity at 0.2 mg is 0.5% on PKC-α [2] (200 μg, Table 9, read-out: Relative Intensity (%)) and 0% at PKC-βII (200 μg, PKC-βII, Table 9, read-out: Relative Intensity (%)). Also, the inhibition at 0.3 mg was found to be 100% at PKC-α [2] (300 μg, Table 9) and 100% at PKC-βII (300 μg, PKC-βII, Table 9). Also, the remaining activity at 0.3 mg came to 0% at PKC-α [2] (300 μg, Table 9, read-out: Relative Intensity (%)) and 0% at PKC-βII (300 μg, PKC-βII, Table 9, read-out: Relative Intensity (%)). The viability at 24 h, 2500 µg/mL in data set [3] (2.5 mg/ml, 24 h, with pinocytic endocytosis reagent) was 106%. In addition, the viability at 48 h, 2500 µg/mL in data set [3] (2.5 mg/ml, 48 h, with pinocytic endocytosis reagent) was found to be 99%. In addition, in data set [3] (2.5 mg/ml, 72 h, with pinocytic endocytosis reagent), the viability at 72 h, 2500 µg/mL stood at 110%. Besides, in data set [3] (10 mg/ml, 24 h, with pinocytic endocytosis reagent), the viability at 24 h, 10000 µg/mL was 103%. For the same substance, the viability at 48 h, 10000 µg/mL in data set [3] (10 mg/ml, 48 h, with pinocytic endocytosis reagent) is 101%. Moreover, the viability at 72 h, 10000 µg/mL in data set [3] (10 mg/ml, 72 h, with pinocytic endocytosis reagent) is 115%. In addition, the “effect on antibody binding to PKC-βII” value on PKC-βII was “some cross-reactivity”.
On to RRKKGGKDFVVKR [PRE 1], for which, in the data set with PKC-α [4] (75 μg peptide), the “Band Intensity” value turned out to be 1.040, the “Inhibition (%)” value is 50.2% and the “Relative Intensity (%)” value was 49.8%. Besides, in the data set with PKC-α [4] (300 μg peptide), the “Band Intensity” value came to 0.771, the “Inhibition (%)” value amounted to 63.1% and the “Relative Intensity (%)” value is reported as 36.9%. The “effect on antibody binding to PKC-α” value in the data set with PKC-α [4] is recorded as “mask the antigenic site of PKC-α”.
As to Ac-AKGIQEVKGGKDAQNLIGISI-NH2 [PRE 5], the viability at 24 h, 62.5 µg/mL in data set [3] (62.5 μg/ml, 24 h, Table 13) stood at 113%. The viability at 48 h, 62.5 µg/mL in data set [3] (62.5 μg/ml, 48 h, Table 13) is 117%. Also, the viability at 72 h, 62.5 µg/mL in data set [3] (62.5 μg/ml, 72 h, Table 13) came out at 100%. In data set [3] (125 μg/ml, 24 h, Table 13), the viability at 24 h, 125 µg/mL was 94%. The viability at 48 h, 125 µg/mL in data set [3] (125 μg/ml, 48 h, Table 13) came to 107%. Further, in data set [3] (125 μg/ml, 72 h, Table 13), the viability at 72 h, 125 µg/mL was determined as 93%. Further, in data set [3] (250 μg/ml, 24 h, Table 13), the viability at 24 h, 250 µg/mL turned out to be 88%. In data set [3] (250 μg/ml, 48 h, Table 13), the viability at 48 h, 250 µg/mL turned out to be 97%. The viability at 72 h, 250 µg/mL in data set [3] (250 μg/ml, 72 h, Table 13) came to 89%. Moreover, the viability at 24 h, 500 µg/mL in data set [3] (500 μg/ml, 24 h, Table 13) came to 78%. Moreover, the viability at 48 h, 500 µg/mL in data set [3] (500 μg/ml, 48 h, Table 13) was 96%. In data set [3] (500 μg/ml, 72 h, Table 13), the viability at 72 h, 500 µg/mL worked out at 84%.
